From PubChem BioAssay AID651880 (NMMLSC, 2012)
Calls of active or inactive are those of the source. No rule for the calls is given here.

What follows are molecules tested against Botulinum neurotoxin type F light chain protease (Clostridium botulinum) (assay: Botulinum neurotoxin F protease inhibition, flow cytometry cleavage assay, confirmatory dose response (AID 651880)). Details: multiplex microsphere flow cytometry protease cleavage assay.
CSc1ccc(C2=NN(c3ccc(C(=O)N4CCOCC4)cc3)C(c3ccccc3)C2)cc1 (centres undefined) was tested, and the EC50 was > 20 µM (inactive).
For CNC(=O)c1ccc(N2N=C(c3ccccc3)CC2c2ccccc2)cc1 (centres undefined), the EC50 was > 20 µM (inactive).
In the case of CSc1ccc(C2=NN(c3ccc(S(C)(=O)=O)cc3)C(c3ccccc3)C2)cc1 (centres undefined), the EC50 is reported as > 20 µM (inactive).
With COc1ccc(N2N=C(c3ccncc3)CC2c2ccccc2)cc1 (centres undefined) the EC50 was > 20 µM (inactive).
NS(=O)(=O)c1ccc(N2N=C(c3cccnc3)CC2c2ccccc2)cc1 (centres undefined) was tested, and the EC50 was > 20 µM (inactive).
In the case of O=C(c1ccc(N2N=C(c3ccccc3)CC2c2ccccc2)cc1)N1CCOCC1 (centres undefined), the EC50 is reported as > 20 µM (inactive).
For CS(=O)(=O)c1ccc(N2N=C(c3cccnc3)CC2c2ccccc2)cc1 (centres undefined), the EC50 was > 20 µM (inactive).
With c1ccc(C2CC(c3cccnc3)=NN2c2ccccc2)cc1 (centres undefined) the EC50 was > 20 µM (inactive).
With c1ccc(C2CC(c3ccccn3)=NN2c2ccccc2)cc1 (centres undefined) the EC50 was > 20 µM (inactive).
In the case of NS(=O)(=O)c1ccc(N2N=C(c3ccccc3)CC2c2ccccc2)cc1 (centres undefined), the EC50 is reported as > 20 µM (inactive).
For O=C(c1ccc(N2N=C(c3ccccc3)CC2c2ccccc2)cc1)N1CCCCC1 (centres undefined), the EC50 was > 20 µM (inactive).
For CS(=O)(=O)c1ccc(N2N=C(c3ccccc3)CC2c2ccccc2)cc1 (centres undefined), the EC50 was > 20 µM (inactive).
For CSc1ccc(C2=NN(c3ccc(C(=O)N4CCCCC4)cc3)C(c3ccccc3)C2)cc1 (centres undefined), the EC50 was > 20 µM (inactive).
For COc1ccc(N2N=C(c3ccccc3)CC2c2ccccc2)cc1 (centres undefined), the EC50 was > 20 µM (inactive).
In the case of CSc1ccc(C2=NN(c3ccccc3)C(c3ccccc3)C2)cc1 (centres undefined), the EC50 is reported as > 20 µM (inactive).
Work on CSc1ccc(C2=NN(c3ccc([N+](=O)[O-])cc3)C(c3ccccc3)C2)cc1 (centres undefined) yielded an EC50 of 0.05 µM.
With CNC(=O)c1ccc(N2N=C(c3ccc(SC)cc3)CC2c2ccccc2)cc1 (centres undefined) the EC50 was > 20 µM (inactive).
CS(=O)(=O)c1ccc(N2N=C(c3ccncc3)CC2c2ccccc2)cc1 (centres undefined) was tested, and the EC50 was > 20 µM (inactive).
With NS(=O)(=O)c1ccc(N2N=C(c3ccncc3)CC2c2ccccc2)cc1 (centres undefined) the EC50 was > 20 µM (inactive).
For COc1ccc(N2N=C(c3cccnc3)CC2c2ccccc2)cc1 (centres undefined), the EC50 was > 20 µM (inactive).
With CC(C)CNC(=O)c1ccc(N2N=C(c3ccccc3)CC2c2ccccc2)cc1 (centres undefined) the EC50 was > 20 µM (inactive).
In the case of O=[N+]([O-])c1ccc(N2N=C(c3ccccc3)CC2c2ccccc2)cc1 (centres undefined), the EC50 is reported as 0.2 µM.
With COc1ccc(N2N=C(c3ccc(SC)cc3)CC2c2ccccc2)cc1 (centres undefined) the EC50 was > 20 µM (inactive).
For CC(C)NC(=O)c1ccc(N2N=C(c3ccccc3)CC2c2ccccc2)cc1 (centres undefined), the EC50 was > 20 µM (inactive).
In the case of COc1ccc(N2N=C(c3ccccn3)CC2c2ccccc2)cc1 (centres undefined), the EC50 is reported as > 20 µM (inactive).
In the case of c1ccc(C2=NN(c3ccccc3)C(c3ccccc3)C2)cc1 (centres undefined), the EC50 is reported as > 20 µM (inactive).
For c1ccc(C2CC(c3ccncc3)=NN2c2ccccc2)cc1 (centres undefined), the EC50 was > 20 µM (inactive).
For c1ccc(-c2cc(-c3ccccc3)n(-c3ccccc3)n2)cc1, the EC50 was > 20 µM (inactive).
For CSc1ccc(C2=NN(c3ccc(S(N)(=O)=O)cc3)C(c3ccccc3)C2)cc1 (centres undefined), the EC50 was > 20 µM (inactive).
